Data set [1] in a line: Relative fluorescence intensity of ICG formulations in Petri dishes, NIRF imaging system. The class given is physicochemical. The note with it: for maximum fluorescent intensity: 5 μg/ml ICG. As to the method: Real-time near-infrared fluorescent (NIRF) imaging was accomplished using a NIRF imaging system. The ring light was coupled to a tungsten halogen source filtered with a Chroma excitation filter (775 nm). The Navitar Zoom 7000 lens was fitted with a Chroma emission filter (845 nm). Images were captured with a Qimaging Retiga camera. Petri dishes (35 mm diameter) were positioned in the imaging system that contained 2 ml of a sample of an enhanced fluorescent composition comprising ICG. This system was used in the investigations of ICG fluorescence enhancement described in this example. Excitation light was delivered to the field of interest using a fiber optic ring light coupled to a tungsten halogen source (Illumination Technologies, Inc. IT 9596-ER) filtered with a 775 nm bandpass filter (Chroma Technologies). A Navitar Zoom 7000 Lens was fitted on a Qimaging Retiga EXi cooled CCD camera.
Indocyanine Green (ICG) stock solutions were prepared by adding 10 ml of diluent to a 25 mg vial of IC Green (Akorn Incorporated). Diluents were water (supplied by the manufacturer), ethanol, or dimethyl sulfoxide (DMSO).
Milk solutions were prepared by dissolving Instant Nonfat Dry Milk (Nestle Carnation) in water at various concentrations up to 30% weight to volume
To prepare ICG-based enhanced fluorescent compositions, ICG stock solutions were added to achieve concentrations up to 250 μg/ml. Relative fluorescence intensity of various formulations was measured in 35 mm circular Petri dishes containing 2 ml. A floating toothpick provided a focusing target.
Intralipid formulations were prepared from Intralipid 20% (Fresenius Kabi), which is a sterile non-pyrogenic fat emulsion prepared for intravenous administration for parenteral nutrition. Intralipid is also a vehicle for intravenous (i.v.) delivery of propofol, and is used as an antidote for acute local anesthetic toxicity. It is a white opaque liquid containing 20% soy bean oil, egg phospholipids, glycerin, and water. ICG stock solutions were added to achieve a range of concentrations of ICG up to 250 μg/ml in the enhanced fluorescent composition.
Stock aqueous ICG solution was diluted into 10, 20, and 30% milk to achieve 1, 5, 10, and 20 μg/ml final concentrations. Fluorescent images of 2 ml of each preparation in 35 mm Petri dishes were acquired using QCapture and quantified using ImageJ.
[…] […] The ICG in DMSO (“ICG/DMSO”) stock solution was diluted into Enfamil and fluorescence intensity measured.
Intralipid is milk-like in its appearance and the major ingredient is 20% soy bean oil. Because Intralipid is approved for human intravenous use, a series of diluted solutions was prepared from the ICG/DMSO stock solution.
In the work summarized in FIG. 9, solutions of ICG were prepared in DMSO, water, or ethanol at 2.5 mg/ml and then diluted to the indicated concentrations across the top of the figure in the diluents listed down the left side. The DMSO and ethanol diluents were diluted with water. Two ml of each solution was transferred to a Petri dish and imaged as described herein in an NIRF imaging system. […] Also imaged were the same ICG concentrations in 5% ethanol and water. […] The use of ethanol and DMSO in pharmaceuticals is limited by the toxicity of these compounds.

Data set [2] in a line: Stability of ICG fluorescence (storage of stock solutions; constant illumination). The class given is physicochemical. The method, then:
A vial of ICG containing 2.5 mg of ICG was dissolved into 10 ml of DMSO. […] Aqueous solutions fade rapidly. The ICG in DMSO (“ICG/DMSO”) stock solution was diluted into Enfamil and fluorescence intensity measured. […] The DMSO concentration at the peak fluorescence was 0.3%. Thus enhancement of fluorescence intensity was similar to that observed with use of reconstituted nonfat dry milk.
With respect to FIG. 12, a solution of ICG in Enfamil (8 μg/ml) in a Petri dish was positioned in the imaging system. With constant illumination the fluorescence image was captured every 10 seconds for 22 minutes.

Data set [3] can be described thus: Aqueous ICG preparation used to image the urinary tract of rats. The class given is physicochemical. The note with it: aqueous solution 2.5 mg/ml diluted. As to the method:
ICG used to image the urinary tract of rats was prepared according to package insert instructions (aqueous solution 2.5 mg/ml) and diluted to 10 μg/ml to achieve peak fluorescence. It was observed that the fluorescence of these preparations was not as intense as that achieved when ICG was injected intravenously and diluted into the blood.

For data set [4] the following is noted: cited from earlier work.
The conditions of data set [5]: in vivo; cited from earlier work.

Molecules are shown by their SMILES. Values joined by “and” are separate entries in the source; they are usually repeats but may differ in a detail not shown here. Equal entries are not always repeated. Where two headings read alike, the source gives them in different places.

Turning to `CC1(C)C(/C=C/C=C/C=C/C=C2\N(CCCCS(=O)(=O)O)c3ccc4ccccc4c3C2(C)C)=[N+](CCCCS(=O)(=O)[O-])c2ccc3ccccc3c21` [ICG, Indocyanine green], the maximum fluorescent intensity entry was “about 950000 IntDen” in data set [1] (10% milk, arbitrary units of integrated density); “about 1000000 IntDen” in data set [1] (20% milk); “about 1150000 IntDen” in data set [1] (30% milk). In addition, in data set [1] (10, 20, 30% milk), the “Dependence of fluorescence on milk concentration” value is reported as “increased with milk concentration”. The “Fluorescence intensity versus ICG concentration” value in data set [1] (25% DMSO in water, FIG. 9) was “increased from 1 to 100 μg/ml”; in data set [1] (100% ethanol, FIG. 9), “lower than in DMSO but increased up to 100 μg/ml”. Also, the “ICG concentration at which imaging system was fully saturated” value in data set [1] (100% DMSO, FIG. 9) stood at 12.5 µg/mL. Further, the “ICG concentration at peak fluorescence” value in data set [1] (ICG in DMSO diluted into Enfamil, Example 2, FIG. 10) was “around 8 μg/ml”; in data set [1] (ICG in DMSO diluted into Intralipid, exposure time reduced from 90 to 70 ms, Example 2, FIG. 10), 8 µg/mL; in data set [1] (ICG/DMSO stock (2.5 mg/ml) diluted into Enfamil, final DMSO 0.3%, Example 1, FIG. 5) it was 7.8 µg/mL; in data set [1] (aqueous ICG stock diluted into 10, 20 and 30% reconstituted nonfat dry milk, 1, 5, 10, 20 μg/ml tested), 5 µg/mL. Further, the “ICG concentration at which quenching occurred” value in data set [1] (in 10, 20 and 30% reconstituted dry milk) was ≥ 10 µg/mL. For the same compound, the “ICG concentration at which fluorescence decreased (quenched)” value in data set [1] (in Enfamil, FIG. 9) was 50 µg/mL and 100 µg/mL. Moreover, the “Fluorescence of ICG diluted into water or saline” value in data set [1] (same imaging conditions as milk preparations) is recorded as “no detectable fluorescence”. Further, the “Persistence of fluorescence of aqueous solutions” value in data set [2] is “fade rapidly”. For the same compound, the “ICG concentration to achieve peak fluorescence” value in data set [3] came to 10 µg/mL. For the same compound, the values for the Maximum fluorescence wavelength result in data set [4] (in blood) and in data set [4] (in water) were “approximately 830 nm” and “approximately 810 nm”, respectively. Besides, in data set [4] (in plasma at low concentrations), the maximum absorption was ~800 nm. Moreover, in data set [5], the Route of excretion result is recorded as “excreted exclusively in the bile”.
